Results as given in paper PMC11604427 (Frontiers in Pharmacology, 2024).

Experiments:
HepG2 cells = test: Western blot of apoptosis markers; assay type: cell-based, human
Protocol: To evaluate the protein levels of apoptosis-associated markers, we performed Western blot analysis on cell extracts as previously reported ([Hao et al., 2018]). Briefly, equal amounts of protein were subjected to SDS-PAGE and then transferred onto a polyvinylidene fluoride (PVDF) membrane. The membrane was incubated in a blocking solution consisting of 5% non-fat dry milk in Tris-buffered saline with Tween-20 (TBS-T) for 3 h at room temperature. Subsequently, the membrane was probed with primary antibodies specific to cleaved PARP and cleaved caspase-3 overnight at 4°C. After washing, the membrane was incubated with horseradish peroxidase-conjugated secondary antibodies for 1 h at room temperature. Immunoreactive bands were visualized using a chemiluminescent substrate (ECL, Pierce Technology). The relative expression levels of cleaved PARP and cleaved caspase-3 were quantified.

LYN = target: T1, LYN (Homo sapiens, UniProt P07948); test: SelectScreen kinase selectivity assay; assay type: biochemical
T1 construct: purchased Thermo Fisher Scientific (SelectScreen service)
Protocol: (§1) The kinase selectivity analysis of PKHD-5 was performed using the SelectScreen kinase analysis service provided by Thermo Fisher Scientific. The experiment initially involved the preparation of a series of inhibitor solutions at varying concentrations, which were then reacted with various kinase targets under standardized conditions to calculate the percentage inhibition for each test solution. Ultimately, the IC50 values were calculated based on the concentration-inhibition curves by fitting a four-parameter logistic curve, thereby assessing the potency and selectivity of the inhibitors. The analysis results are detailed in Supplementary Table S1.

BTK = target: T2, BTK (Homo sapiens, UniProt Q06187); test: SelectScreen kinase selectivity assay; assay type: biochemical
T2 construct: purchased Thermo Fisher Scientific (SelectScreen service)
Protocol: as §1

ZAP70 = target: T3, ZAP70 (Homo sapiens, UniProt P43403); test: SelectScreen kinase selectivity assay; assay type: biochemical
T3 construct: purchased Thermo Fisher Scientific (SelectScreen service)
Protocol: as §1

FRK = target: T4, FRK (Homo sapiens, UniProt P42685); test: SelectScreen kinase selectivity assay; assay type: biochemical
T4 construct: purchased Thermo Fisher Scientific (SelectScreen service)
T4 sequence (P42685 whole entry): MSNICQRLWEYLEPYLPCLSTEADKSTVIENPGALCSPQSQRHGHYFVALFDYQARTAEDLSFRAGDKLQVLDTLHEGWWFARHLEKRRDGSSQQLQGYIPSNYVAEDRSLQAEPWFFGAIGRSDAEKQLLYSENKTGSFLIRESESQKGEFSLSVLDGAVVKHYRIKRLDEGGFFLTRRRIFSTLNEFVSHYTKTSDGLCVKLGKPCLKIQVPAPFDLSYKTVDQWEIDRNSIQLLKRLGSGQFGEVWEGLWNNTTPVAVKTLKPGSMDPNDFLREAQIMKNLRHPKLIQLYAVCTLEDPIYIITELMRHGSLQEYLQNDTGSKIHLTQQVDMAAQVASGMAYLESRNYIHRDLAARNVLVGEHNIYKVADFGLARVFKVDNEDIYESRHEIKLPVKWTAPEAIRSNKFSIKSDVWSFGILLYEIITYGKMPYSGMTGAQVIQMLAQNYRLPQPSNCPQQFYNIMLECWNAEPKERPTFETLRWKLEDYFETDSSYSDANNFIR
Protocol: as §1

NTRK1 = target: T5, NTRK1 (Homo sapiens, UniProt P04629); test: SelectScreen kinase selectivity assay; assay type: biochemical
T5 construct: purchased Thermo Fisher Scientific (SelectScreen service)
Protocol: as §1

EPHA4 = target: T6, EPHA4 (Homo sapiens, UniProt P54764); test: SelectScreen kinase selectivity assay; assay type: biochemical
T6 construct: purchased Thermo Fisher Scientific (SelectScreen service)
Protocol: as §1

EPHA1 = target: T7, EPHA1 (Homo sapiens, UniProt P21709); test: SelectScreen kinase selectivity assay; assay type: biochemical
T7 construct: purchased Thermo Fisher Scientific (SelectScreen service)
Protocol: as §1

FGR = target: T8, FGR (Homo sapiens, UniProt P09769); test: SelectScreen kinase selectivity assay; assay type: biochemical
T8 construct: purchased Thermo Fisher Scientific (SelectScreen service)
Protocol: as §1

MST1R = target: T9, MST1R (Homo sapiens, UniProt Q04912); test: SelectScreen kinase selectivity assay; assay type: biochemical
T9 construct: purchased Thermo Fisher Scientific (SelectScreen service)
T9 sequence (Q04912 25-1400): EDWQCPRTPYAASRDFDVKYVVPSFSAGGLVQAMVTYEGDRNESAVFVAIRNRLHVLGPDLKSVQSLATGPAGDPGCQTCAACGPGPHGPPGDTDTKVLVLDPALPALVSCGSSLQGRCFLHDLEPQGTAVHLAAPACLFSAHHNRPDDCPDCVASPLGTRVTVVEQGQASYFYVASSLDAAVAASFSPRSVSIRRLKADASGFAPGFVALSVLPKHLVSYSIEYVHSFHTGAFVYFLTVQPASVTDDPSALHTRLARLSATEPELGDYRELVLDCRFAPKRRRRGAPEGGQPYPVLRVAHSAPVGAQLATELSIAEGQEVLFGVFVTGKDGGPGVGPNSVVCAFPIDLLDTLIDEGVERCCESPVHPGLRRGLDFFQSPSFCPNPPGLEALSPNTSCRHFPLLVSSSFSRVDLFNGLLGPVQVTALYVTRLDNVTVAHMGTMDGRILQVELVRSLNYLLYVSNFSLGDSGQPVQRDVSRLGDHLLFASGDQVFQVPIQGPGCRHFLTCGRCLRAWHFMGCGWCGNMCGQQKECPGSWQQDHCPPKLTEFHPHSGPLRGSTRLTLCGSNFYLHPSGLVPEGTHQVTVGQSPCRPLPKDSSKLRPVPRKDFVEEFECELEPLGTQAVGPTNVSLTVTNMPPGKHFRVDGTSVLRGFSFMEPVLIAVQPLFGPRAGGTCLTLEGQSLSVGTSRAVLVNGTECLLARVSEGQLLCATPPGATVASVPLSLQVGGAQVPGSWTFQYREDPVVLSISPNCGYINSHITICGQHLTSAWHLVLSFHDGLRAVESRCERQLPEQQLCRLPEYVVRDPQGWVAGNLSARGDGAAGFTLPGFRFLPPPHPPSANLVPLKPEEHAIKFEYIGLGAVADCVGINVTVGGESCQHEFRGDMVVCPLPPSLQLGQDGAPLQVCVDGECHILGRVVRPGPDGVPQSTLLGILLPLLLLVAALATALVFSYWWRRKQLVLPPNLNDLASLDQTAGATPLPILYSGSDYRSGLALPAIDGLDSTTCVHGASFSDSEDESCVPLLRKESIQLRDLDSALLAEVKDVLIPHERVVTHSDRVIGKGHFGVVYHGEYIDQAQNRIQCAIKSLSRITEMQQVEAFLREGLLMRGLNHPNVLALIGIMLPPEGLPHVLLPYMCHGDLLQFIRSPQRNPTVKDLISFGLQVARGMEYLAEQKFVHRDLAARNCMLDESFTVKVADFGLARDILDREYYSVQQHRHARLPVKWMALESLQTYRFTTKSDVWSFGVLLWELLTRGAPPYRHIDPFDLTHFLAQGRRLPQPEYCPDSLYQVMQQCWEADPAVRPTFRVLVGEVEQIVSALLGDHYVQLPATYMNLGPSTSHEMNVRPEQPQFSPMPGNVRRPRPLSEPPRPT
Protocol: as §1

NTRK3 = target: T10, NTRK3 (Homo sapiens, UniProt Q16288); test: SelectScreen kinase selectivity assay; assay type: biochemical
T10 construct: purchased Thermo Fisher Scientific (SelectScreen service)
Protocol: as §1

EPHB2 = target: T11, EPHB2 (Homo sapiens, UniProt P29323); test: SelectScreen kinase selectivity assay; assay type: biochemical
T11 construct: purchased Thermo Fisher Scientific (SelectScreen service)
Protocol: as §1

ABL2 = target: T12, ABL2 (Homo sapiens, UniProt P42684); test: SelectScreen kinase selectivity assay; assay type: biochemical
T12 construct: purchased Thermo Fisher Scientific (SelectScreen service)
Protocol: as §1

PTK2 = target: T13, PTK2 (Homo sapiens, UniProt Q05397); test: SelectScreen kinase selectivity assay; assay type: biochemical
T13 construct: purchased Thermo Fisher Scientific (SelectScreen service)
Protocol: as §1

FGFR1 = target: T14, FGFR1 (Homo sapiens, UniProt P11362); test: SelectScreen kinase selectivity assay; assay type: biochemical
T14 construct: purchased Thermo Fisher Scientific (SelectScreen service)
Protocol: as §1

PLK2 = target: T15, PLK2 (Homo sapiens, UniProt Q9NYY3); test: SelectScreen kinase selectivity assay; assay type: biochemical
T15 construct: purchased Thermo Fisher Scientific (SelectScreen service)
Protocol: as §1

ERBB4 = target: T16, ERBB4 (Homo sapiens, UniProt Q15303); test: SelectScreen kinase selectivity assay; assay type: biochemical
T16 construct: purchased Thermo Fisher Scientific (SelectScreen service)
Protocol: as §1

PIM1 = target: T17, PIM1 (Homo sapiens, UniProt P11309); test: SelectScreen kinase selectivity assay; assay type: biochemical
T17 construct: purchased Thermo Fisher Scientific (SelectScreen service)
Protocol: as §1

FGFR4 = target: T18, FGFR4 (Homo sapiens, UniProt P22455); test: SelectScreen kinase selectivity assay; assay type: biochemical
T18 construct: purchased Thermo Fisher Scientific (SelectScreen service)
Protocol: as §1

ROS1 = target: T19, ROS1 (Homo sapiens, UniProt P08922); test: SelectScreen kinase selectivity assay; assay type: biochemical
T19 construct: purchased Thermo Fisher Scientific (SelectScreen service)
T19 sequence (P08922 28-2347): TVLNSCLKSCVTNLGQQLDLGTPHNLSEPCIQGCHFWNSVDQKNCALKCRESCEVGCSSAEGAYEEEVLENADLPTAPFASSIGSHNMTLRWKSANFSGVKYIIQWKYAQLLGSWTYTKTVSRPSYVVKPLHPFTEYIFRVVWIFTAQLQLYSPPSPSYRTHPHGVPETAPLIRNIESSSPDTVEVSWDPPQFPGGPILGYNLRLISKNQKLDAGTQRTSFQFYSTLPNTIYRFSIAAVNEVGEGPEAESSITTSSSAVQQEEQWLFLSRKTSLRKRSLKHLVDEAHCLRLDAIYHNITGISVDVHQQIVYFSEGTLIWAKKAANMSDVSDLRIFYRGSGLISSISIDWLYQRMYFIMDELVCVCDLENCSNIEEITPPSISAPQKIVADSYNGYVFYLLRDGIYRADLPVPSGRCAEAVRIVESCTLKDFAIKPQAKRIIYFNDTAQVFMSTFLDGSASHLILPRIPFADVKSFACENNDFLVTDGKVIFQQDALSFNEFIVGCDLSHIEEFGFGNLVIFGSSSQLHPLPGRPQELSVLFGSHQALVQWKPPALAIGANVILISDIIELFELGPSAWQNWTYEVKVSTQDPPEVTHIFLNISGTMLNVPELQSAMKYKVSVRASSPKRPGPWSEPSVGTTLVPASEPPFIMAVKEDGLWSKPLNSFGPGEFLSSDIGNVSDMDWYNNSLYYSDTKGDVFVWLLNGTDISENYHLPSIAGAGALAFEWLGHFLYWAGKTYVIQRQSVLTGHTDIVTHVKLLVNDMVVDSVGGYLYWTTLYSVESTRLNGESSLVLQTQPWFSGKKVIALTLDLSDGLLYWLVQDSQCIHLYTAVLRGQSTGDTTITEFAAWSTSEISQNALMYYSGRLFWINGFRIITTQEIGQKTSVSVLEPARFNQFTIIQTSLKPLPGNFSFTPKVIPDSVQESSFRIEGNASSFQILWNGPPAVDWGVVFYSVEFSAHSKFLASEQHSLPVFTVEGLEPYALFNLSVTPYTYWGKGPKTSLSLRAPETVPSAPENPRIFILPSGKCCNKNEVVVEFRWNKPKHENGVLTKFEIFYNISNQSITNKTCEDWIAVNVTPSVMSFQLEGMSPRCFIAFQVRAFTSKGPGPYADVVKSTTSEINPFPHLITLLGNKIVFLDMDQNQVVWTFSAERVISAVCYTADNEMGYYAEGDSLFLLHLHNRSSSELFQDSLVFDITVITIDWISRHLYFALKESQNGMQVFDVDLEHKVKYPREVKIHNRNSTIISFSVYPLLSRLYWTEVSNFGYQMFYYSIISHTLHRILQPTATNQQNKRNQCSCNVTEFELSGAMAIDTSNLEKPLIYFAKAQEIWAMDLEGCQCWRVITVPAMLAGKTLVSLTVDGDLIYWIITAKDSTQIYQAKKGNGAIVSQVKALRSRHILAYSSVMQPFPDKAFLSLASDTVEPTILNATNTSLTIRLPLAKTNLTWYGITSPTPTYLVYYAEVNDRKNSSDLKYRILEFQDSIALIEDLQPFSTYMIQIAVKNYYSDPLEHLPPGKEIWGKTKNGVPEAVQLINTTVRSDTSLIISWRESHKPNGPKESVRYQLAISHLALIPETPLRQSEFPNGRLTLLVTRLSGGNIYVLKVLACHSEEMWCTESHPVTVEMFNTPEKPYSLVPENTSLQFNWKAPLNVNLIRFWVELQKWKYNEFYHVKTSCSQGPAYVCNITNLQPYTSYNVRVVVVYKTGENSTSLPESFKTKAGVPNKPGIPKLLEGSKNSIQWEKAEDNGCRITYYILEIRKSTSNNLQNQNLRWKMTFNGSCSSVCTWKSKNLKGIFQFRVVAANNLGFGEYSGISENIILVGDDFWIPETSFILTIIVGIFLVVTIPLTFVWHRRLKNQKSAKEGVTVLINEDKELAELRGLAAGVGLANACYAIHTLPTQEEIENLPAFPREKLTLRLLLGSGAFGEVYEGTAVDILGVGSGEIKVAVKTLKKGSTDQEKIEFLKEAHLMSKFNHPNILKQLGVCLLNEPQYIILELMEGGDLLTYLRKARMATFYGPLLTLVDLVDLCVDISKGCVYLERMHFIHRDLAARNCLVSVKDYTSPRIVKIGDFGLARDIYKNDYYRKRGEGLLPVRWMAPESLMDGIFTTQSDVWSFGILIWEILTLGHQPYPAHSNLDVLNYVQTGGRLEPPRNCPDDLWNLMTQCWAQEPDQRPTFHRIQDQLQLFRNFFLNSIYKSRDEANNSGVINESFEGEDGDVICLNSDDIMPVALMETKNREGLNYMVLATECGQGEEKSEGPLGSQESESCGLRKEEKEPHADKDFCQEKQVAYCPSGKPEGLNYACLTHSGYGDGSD
Protocol: as §1

AXL = target: T20, AXL (Homo sapiens, UniProt P30530); test: SelectScreen kinase selectivity assay; assay type: biochemical
T20 construct: purchased Thermo Fisher Scientific (SelectScreen service)
Protocol: as §1

MET = target: T21, MET (Homo sapiens, UniProt P08581); test: SelectScreen kinase selectivity assay; assay type: biochemical
T21 construct: purchased Thermo Fisher Scientific (SelectScreen service)
Protocol: as §1

RAF1 = target: T22, RAF1 (Homo sapiens, UniProt P04049, Y340D/Y341D); test: SelectScreen kinase selectivity assay; assay type: biochemical
T22 construct: purchased Thermo Fisher Scientific (SelectScreen service)
T22 sequence (P04049 306-648 Y340D/Y341D limits assumed): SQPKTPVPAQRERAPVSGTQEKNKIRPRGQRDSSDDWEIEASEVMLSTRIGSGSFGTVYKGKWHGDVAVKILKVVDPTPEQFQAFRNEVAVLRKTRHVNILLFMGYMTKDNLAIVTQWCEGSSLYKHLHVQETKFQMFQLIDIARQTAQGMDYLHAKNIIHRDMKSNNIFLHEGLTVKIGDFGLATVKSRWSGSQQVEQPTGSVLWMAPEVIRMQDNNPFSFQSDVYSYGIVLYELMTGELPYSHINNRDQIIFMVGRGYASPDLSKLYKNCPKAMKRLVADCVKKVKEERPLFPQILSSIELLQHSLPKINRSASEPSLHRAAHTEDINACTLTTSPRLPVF
Protocol: as §1

FGFR3 = target: T23, FGFR3 (Homo sapiens, UniProt P22607); test: SelectScreen kinase selectivity assay; assay type: biochemical
T23 construct: purchased Thermo Fisher Scientific (SelectScreen service)
Protocol: as §1

ZAK = target: T24, ZAK (Homo sapiens, UniProt Q9NYL2); test: SelectScreen kinase selectivity assay; assay type: biochemical
T24 construct: purchased Thermo Fisher Scientific (SelectScreen service)
Protocol: as §1

JAK1 = target: T25, JAK1 (Homo sapiens, UniProt P23458); test: SelectScreen kinase selectivity assay; assay type: biochemical
T25 construct: purchased Thermo Fisher Scientific (SelectScreen service)
Protocol: as §1

EPHB1 = target: T26, EPHB1 (Homo sapiens, UniProt P54762); test: SelectScreen kinase selectivity assay; assay type: biochemical
T26 construct: purchased Thermo Fisher Scientific (SelectScreen service)
Protocol: as §1

ALK = target: T27, ALK (Homo sapiens, UniProt Q9UM73); test: SelectScreen kinase selectivity assay; assay type: biochemical
T27 construct: purchased Thermo Fisher Scientific (SelectScreen service)
Protocol: as §1

YES1 = target: T28, YES1 (Homo sapiens, UniProt P07947); test: SelectScreen kinase selectivity assay; assay type: biochemical
T28 construct: purchased Thermo Fisher Scientific (SelectScreen service)
Protocol: as §1

MERTK = target: T29, MERTK (Homo sapiens, UniProt Q12866); test: SelectScreen kinase selectivity assay; assay type: biochemical
T29 construct: purchased Thermo Fisher Scientific (SelectScreen service)
Protocol: as §1

EPHA5 = target: T30, EPHA5 (Homo sapiens, UniProt P54756); test: SelectScreen kinase selectivity assay; assay type: biochemical
T30 construct: purchased Thermo Fisher Scientific (SelectScreen service)
Protocol: as §1

HCK = target: T31, HCK (Homo sapiens, UniProt P08631); test: SelectScreen kinase selectivity assay; assay type: biochemical
T31 construct: purchased Thermo Fisher Scientific (SelectScreen service)
Protocol: as §1

BLK = target: T32, BLK (Homo sapiens, UniProt P51451); test: SelectScreen kinase selectivity assay; assay type: biochemical
T32 construct: purchased Thermo Fisher Scientific (SelectScreen service)
T32 sequence (P51451 whole entry): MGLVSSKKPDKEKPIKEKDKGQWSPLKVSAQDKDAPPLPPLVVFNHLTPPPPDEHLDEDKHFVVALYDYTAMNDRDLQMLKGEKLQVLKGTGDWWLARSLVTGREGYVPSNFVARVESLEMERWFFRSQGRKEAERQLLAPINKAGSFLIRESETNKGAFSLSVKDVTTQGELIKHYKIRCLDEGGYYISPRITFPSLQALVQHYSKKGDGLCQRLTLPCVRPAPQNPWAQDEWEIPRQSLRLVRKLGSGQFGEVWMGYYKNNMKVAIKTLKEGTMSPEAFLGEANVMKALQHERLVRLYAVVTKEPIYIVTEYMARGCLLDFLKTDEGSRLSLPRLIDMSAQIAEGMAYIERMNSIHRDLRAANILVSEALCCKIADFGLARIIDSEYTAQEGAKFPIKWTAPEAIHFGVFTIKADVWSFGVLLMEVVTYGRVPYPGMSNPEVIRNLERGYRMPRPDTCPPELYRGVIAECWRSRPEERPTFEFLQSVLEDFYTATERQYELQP
Protocol: as §1

FGFR2 = target: T33, FGFR2 (Homo sapiens, UniProt P21802); test: SelectScreen kinase selectivity assay; assay type: biochemical
T33 construct: purchased Thermo Fisher Scientific (SelectScreen service)
Protocol: as §1

FYN = target: T34, FYN (Homo sapiens, UniProt P06241); test: SelectScreen kinase selectivity assay; assay type: biochemical
T34 construct: purchased Thermo Fisher Scientific (SelectScreen service)
Protocol: as §1

BMX = target: T35, BMX (Homo sapiens, UniProt P51813); test: SelectScreen kinase selectivity assay; assay type: biochemical
T35 construct: purchased Thermo Fisher Scientific (SelectScreen service)
Protocol: as §1

EPHA3 = target: T36, EPHA3 (Homo sapiens, UniProt P29320); test: SelectScreen kinase selectivity assay; assay type: biochemical
T36 construct: purchased Thermo Fisher Scientific (SelectScreen service)
Protocol: as §1

## Cc1ccc(O)c(C)c1-n1c(N)c(C(N)=O)c2cc(CCCCCC(=O)NO)c(C)nc21 [PKHD-5]
HepG2 cells
  levels of cleaved PARP: increased levels
  levels of cleaved caspase-3: increased levels
LYN
  IC50: > 50 µM
BTK
  IC50: > 50 µM
ZAP70
  IC50: > 50 µM
FRK
  IC50: > 50 µM
NTRK1
  IC50: > 50 µM
EPHA4
  IC50: > 50 µM
EPHA1
  IC50: > 50 µM
FGR
  IC50: > 50 µM
MST1R
  IC50: > 50 µM
NTRK3
  IC50: > 50 µM
EPHB2
  IC50: > 50 µM
ABL2
  IC50: > 50 µM
PTK2
  IC50: > 50 µM
FGFR1
  IC50: > 50 µM
PLK2
  IC50: > 50 µM
ERBB4
  IC50: > 50 µM
PIM1
  IC50: > 50 µM
FGFR4
  IC50: > 50 µM
ROS1
  IC50: > 50 µM
AXL
  IC50: > 50 µM
MET
  IC50: > 50 µM
RAF1
  IC50: > 50 µM
FGFR3
  IC50: > 50 µM
ZAK
  IC50: > 50 µM
JAK1
  IC50: > 50 µM
EPHB1
  IC50: > 50 µM
ALK
  IC50: > 50 µM
YES1
  IC50: > 50 µM
MERTK
  IC50: > 50 µM
EPHA5
  IC50: > 50 µM
HCK
  IC50: > 50 µM
BLK
  IC50: > 50 µM
FGFR2
  IC50: > 50 µM
FYN
  IC50: > 50 µM
BMX
  IC50: > 50 µM
EPHA3
  IC50: > 50 µM
